The values below come from paper PMC10315211 (Molecular microbiology, 2023).

This assay has as its target Rv0805 (N-His-Rv0805) (Mycobacterium tuberculosis, UniProt P9WP65).

Chain of Rv0805 (N-His-Rv0805) (P9WP65 whole entry): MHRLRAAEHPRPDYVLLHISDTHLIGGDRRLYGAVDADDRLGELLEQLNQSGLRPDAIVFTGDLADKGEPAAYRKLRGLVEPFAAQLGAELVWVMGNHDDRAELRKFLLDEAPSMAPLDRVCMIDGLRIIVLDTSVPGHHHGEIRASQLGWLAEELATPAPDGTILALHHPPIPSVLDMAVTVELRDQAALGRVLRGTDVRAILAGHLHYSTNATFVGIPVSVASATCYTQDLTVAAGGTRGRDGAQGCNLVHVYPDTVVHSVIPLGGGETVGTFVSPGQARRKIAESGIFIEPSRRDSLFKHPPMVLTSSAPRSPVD

With `C[N+](C)(C)CCOP(=O)([O-])OC[C@H](O)CO` [glycerophosphocholine], the “choline oxidase / HRP coupled Amplex Red fluorometric assay” value was “both Rv0805 and CpdAEc produced choline and Gly3P from glycerophosphocholine (GPC)”.
